Test results taken from patent US20020055465A1, “Nocathiacin antibiotics prepared by biotransformation or chemical methods” (priority 2000, published 2002).
Converted amounts (≈) assume the structure as drawn. Where a name gives a salt, the structure may show the parent alone. Read-outs that look alike come from different tables or passages of the source.

Key:
[1] = tested on: Staphylococcus haemolyticus; assay: MIC, broth micro dilution assay (NCCLS); assay type: cell-based; conditions: strain A27298
Description: (§1) The serial broth dilution method used Mueller-Hinton medium except for the Streptococcus pneumoniae which was tested in 50% Mueller-Hinton medium and 50% Todd Hewitt medium. The final bacterial inoculate contained approximately 5×10^5 cfu/well and was run on microtiter plates. The volume of each well was 100 μL and the plates were incubated at 35° C. for 18 hours in ambient air. The MIC was defined as the lowest drug concentration that prevented visible growth.

Streptococcus pneumoniae = assay: MIC, broth micro dilution assay (NCCLS); assay type: cell-based
Description: as §1

[2] = tested on: Moraxella catarrhalis/β-lactamase positive; assay: MIC, broth micro dilution assay (NCCLS); assay type: cell-based; conditions: strain A22344
Description: as §1

[3] = tested on: Bacillus subtilis/ATCC6633; assay: MIC, broth micro dilution assay (NCCLS); assay type: cell-based
Description: as §1

Enterococcus faecalis = assay: MIC, broth micro dilution assay (NCCLS); assay type: cell-based; conditions: strain A20688
Description: as §1

Enterococcus faecium = assay: MIC, broth micro dilution assay (NCCLS); assay type: cell-based
Description: as §1

Staphylococcus aureus = assay: MIC, broth micro dilution assay (NCCLS); assay type: cell-based
Description: as §1

[4] = tested on: Staphylococcus epidermidis; assay: MIC, broth micro dilution assay (NCCLS); assay type: cell-based; conditions: strain A24548
Description: as §1

[5] = tested on: Staphylococcus aureus A15090; assay: Systemic Staphylococcus aureus infection model; assay type: in vivo; conditions: female ICR mice infected IP with S. aureus A15090; compound SC at 1 and 4 hours post-infection
Description: Nocathiacin IV and nocathiacin IV 6-deoxyglucoside were evaluated for antibiotic activity in vivo, in a systemic infection model using female ICR mice. The animals were infected intraperitoneally (IP) with 6.5×10^6 CFU of an overnight culture of Staphylococcus aureus A15090 suspended in 7% mucin. The compound was dissolved in a test formulation consisting of 10% DMSO, 5% Tween 80 and 85% water. The solution was administered subcutaneously (SC) at 100 mg/kg total dose (2×50 mg/kg doses at 1 and 4 hours post-infection). The PD50 of nocathiacin IV was determined to be 1.07 mg/kg. The PD50 of nocathiacin IV 6-deoxyglucoside was determined to be 6.4 mg/kg.

[6] = Streptococcus pneumoniae, strain A9585, 50% Mueller-Hinton/50% Todd Hewitt medium
[7] = Streptococcus pneumoniae/penicillin intermediate, strain A27881
[8] = Streptococcus pneumoniae/penicillin resistant, strain A28272, read-out: MIC
[9] = Enterococcus faecalis + 50% calf serum
[10] = Enterococcus faecalis, read-out: MIC
[11] = Enterococcus faecium/vancomycin resistant, strain A28142
[12] = 209P / ATCC 6538P, Staphylococcus aureus/209P/ATCC6538P, strain A9497
[13] = Staphylococcus aureus + 50% calf serum, strain A15090
[14] = Staphylococcus aureus + 50% calf serum, strain A27223
[15] = Staphylococcus aureus/homo methicillin resistant, strain A27223
[16] = Staphylococcus aureus/β lactamase positive, strain A15090

Row | Structure (SMILES) | MIC [1] | MIC (Streptococcus pneumoniae; [6]) | MIC (Streptococcus pneumoniae; [7]) | MIC (Streptococcus pneumoniae; [8]) | MIC [2] | MIC [3] | MIC (Enterococcus faecalis; [9]) | MIC (Enterococcus faecalis; [10]) | MIC (Enterococcus faecium; [11]) | MIC (Enterococcus faecium; strain A24885) | MIC (Staphylococcus aureus; [12]) | MIC (Staphylococcus aureus; [13]) | MIC (Staphylococcus aureus; [14]) | MIC (Staphylococcus aureus; [15]) | MIC (Staphylococcus aureus; [16]) | MIC [4] | PD50 [5]
1 | CO/C(C)=C1/NC(=O)C(C(C)O)NC(=O)c2csc(n2)-c2cc(O)c(-c3nc(C(N)=O)cs3)nc2-c2csc(n2)C2COC(=O)c3c4c5c(cccc5n3O)COC(=O)C(OC3CC(C)(O)C(N(C)C)C(C)O3)C(OC4)C(NC(=O)c3csc1n3)c1nc(cs1)C(=O)N2 (stereo not shown) [Nocathiacin IV (HCI salt), nocathiacin IV] | 0.06 µg/mL | 0.001 µg/mL | 0.001 µg/mL | 0.001 µg/mL | 0.25 µg/mL | 0.06 µg/mL | 0.03 µg/mL | 0.03 µg/mL | 0.03 µg/mL | 0.06 µg/mL | 0.03 µg/mL | 0.03 µg/mL | 0.03 µg/mL | 0.03 µg/mL | 0.03 µg/mL | 0.06 µg/mL | –
2 | CO/C(C)=C1/NC(=O)C(C(C)O)NC(=O)c2csc(n2)-c2cc(OC3OC(C)C(O)C(O)C3O)c(-c3nc(C(N)=O)cs3)nc2-c2csc(n2)C2COC(=O)c3c4c5c(cccc5n3O)COC(=O)C(OC3CC(C)(O)C(N(C)C)C(C)O3)C(OC4)C(NC(=O)c3csc1n3)c1nc(cs1)C(=O)N2 (stereo not shown) [nocathiacin IV 6-deoxyglucoside] | 0.5 µg/mL (≈ 0.33 µM) | 0.03 µg/mL (≈ 0.0198 µM) | 0.03 µg/mL (≈ 0.0198 µM) | 0.03 µg/mL (≈ 0.0198 µM) | 2 µg/mL (≈ 1.32 µM) | 0.5 µg/mL (≈ 0.33 µM) | 0.25 µg/mL | 0.25 µg/mL (≈ 0.165 µM) | 0.5 µg/mL (≈ 0.33 µM) | 0.5 µg/mL (≈ 0.33 µM) | 0.5 µg/mL (≈ 0.33 µM) | 0.25 µg/mL | 0.25 µg/mL | 0.5 µg/mL (≈ 0.33 µM) | 0.5 µg/mL (≈ 0.33 µM) | 0.25 µg/mL (≈ 0.165 µM) | 6.4 mg/kg
3 | CO/C(C)=C1/NC(=O)C(C(C)O)NC(=O)c2csc(n2)-c2cc(O)c(-c3nc(C(N)=O)cs3)nc2-c2csc(n2)C2COC(=O)c3c4c5c(cccc5n3O)COC(=O)C(OC3CC(C)(O)C(N(C)C)C(C)O3)C(OC4)C(NC(=O)c3csc1n3)c1nc(cs1)C(=O)N2 (stereo not shown) [nocathiacin IV] | – | – | – | – | – | – | – | – | – | – | – | – | – | – | – | – | 1.07 mg/kg
